These are literature values, as cited in patent publication US20050267140A1, “Method for treating abnormal cell growth” (priority 2004, published 2005).

Like-named read-outs stand apart in the source and are kept apart here.

In the series the test system is previously untreated patients with metastatic colorectal cancer.
Setting [1] is: capecitabine treatment arms, 2500 mg/m^2/day for 14 days every 3 weeks.

For `CCCCCOC(=O)Nc1nc(=O)n([C@@H]2O[C@H](C)[C@@H](O)[C@H]2O)cc1F` [capecitabine, 5′-deoxy-5-fluoro-N-[(pentyloxy)-carbonyl]-cytidine], the Median survival runs as follows: (European trial (N=602), p=0.30) 13.3 months; (US trial (N=605), p=0.24) 12.5 months. The “Grade 3-4 diarrhea” value under setting [1] is listed as 14%. Moreover, the “Grade 3-4 hand-foot syndrome” value under setting [1] was 17%. For the same molecule, the Overall response rate by setting is: (first of the 2 trials as listed ('respectively'), p=0.014) 21%; (second of the 2 trials as listed ('respectively'), p=0.03) 21%.
